# Data from US5968920A, “Compounds having a benzisoselen-azoline and -azine structure, method for preparing same and therapeutic uses thereof” (Oxis Isle of Man, Limited, priority 1994, dated 1999).
# Tests used:
# [1] = Glutathione peroxidase activity, t-BuOOH as hydroperoxide; type: biochemical; conditions: compound 20 μM, pH = 7.3, 37° C., [GSH] = 2 mM
# Experimental: (§1) To 1.5 ml of HEPES buffer, 50 mM, pH=7.3, containing 0.2 mM of DTPA, 0.144 mM of NADPH, 2.2 mM of reduced glutathione and 1.1 U/ml of glutathione disulfide reductase, pre-equilibrated for 2 minutes at 37° C., 100 μl of an ethanolic mother solution of the compound to be tested or 100 μl of absolute ethanol (blank) was added. Each compound was tested at a final concentration of 20 μM.
# (§2) Subsequently, 50 μl of the following was added:
# tertiobutyl hydroperoxide (t-BuOOH), 6.6 mM in ultrapure water;
# (§3) or the hydroperoxide of linoleic acid (18:2-OOH) prepared using soya lipoxygenase (see M. O. Funk et al., Lipids, (1976), 11, pp 113-117), 3.3 mM in a water/methanol mixture, 85/15 (V/V). The glutathione peroxidase activity was measured at 37° C. by measuring the reduction in absorbance at 340 nm over 5 minutes. The initial enzymatic rate or activity was proportional to the slope of the plot of absorbance against time.
# (§4) They are expressed in nmoles of hydroperoxide reduced per minute.
# [2] = Glutathione peroxidase activity, hydrogen peroxide; type: biochemical; conditions: compound 20 μM, pH = 7.3, 37° C., [GSH] = 2 mM
# Experimental: as §1, §2
# or hydrogen peroxide (H2 O2), 1.6 mM in ultrapure water;
# as §3, §4
# endothelial cells = assay: Viability of endothelial cells subjected to linoleic acid hydroperoxide (MTT); type: cell-based, human; conditions: compound 4 μM, 1 h; 18:2-OOH 50 μM, 2 h; MTT after about twenty hours
# Experimental: Human endothelial cells were cultivated at 37° C. in multi-hole plates or Petri dishes in an atmosphere of saturated humidity constituted by a gaseous mixture of 95% air and 5% of CO2. The culture medium was constituted by a M 199 medium, pH=7.4, containing 20% of foetal calf serum, 2 mM of L-glutamine, 100 U/ml of penicillin, 100 μg/ml of streptomycin and 1% by volume of a medium supplement containing heparin and a cell growth factor.
# When the cells were near confluence, they were incubated for one hour in the presence or absence of one of the following compounds: BXT-51056, BXT-51072, BXT-51077, or ebelsen. Each of these compounds was incorporated at 4 μM into culture medium containing 2% of foetal calf serum, all other conditions being the same.
# After washing the cells three successive times with a PBS buffer, they were incubated in the presence or absence (control) of linoleic acid hydroperoxide (18:2-OOH), 50 μM, in the culture medium defined above. […] After about twenty hours, the viability of the cells was determined by measurement using the bromide of 3-(4,5-dimethylthiazol-2-yl)-2,5-diphenyl-2H-tetrazolium (MTT).
# The results are shown in FIG. 1, expressed as the survival percentage with respect to the control and where the reference is shown by the black rectangle.
# P-selectin = assay: Endothelial expression of P-selectin induced by TNF-α (ELISA); type: cell-based; conditions: Homo sapiens, Endothelial cell; compound 10 μM; TNF-α 1 ng/ml; 3 to 4 hours; read-out: inhibition of TNF-α induced increase in expression of P-selectin
# Experimental: Human endothelial cells were cultivated under the same conditions as those described for Example 18. When the cells were near confluence, they were incubated for one hour in the presence or absence of BXT-51072 at 10 μM in culture medium containing 2% of foetal calf serum, all other conditions being the same. The cells were then washed three times with a PBS buffer. The cells which had not been pretreated by a compound were incubated in the presence or absence (control) of TNF-α, at 1 ng/ml, in the same culture medium. The pretreated cells were incubated under the same conditions, but the medium also contained BXT-51072 at 10 μM. After 3 to 4 hours of incubation, the cells were washed with a PBS buffer and fixed with 2% formaldehyde in a PBS buffer.
# rat = assay: Tolerance after repeated oral administration to the rat in vivo; parameters: species or system Sprague-Dawley rat; conditions: 14 days
# Experimental: Male adult Sprague-Dawley rats were randomly divided into 4 groups. To one group of 10 rats and another group of 15 rats, one dose of 10 μmoles and one dose of 100 μmoles per kilogram of body weight of BXT-51072 were respectively orally administered (force feeding) each day for 14 days. These doses were administered using an aqueous solution containing 1% of sodium carboxymethylcellulose (CMC). Using the same procedure, a third group of 12 rats received only the vector (1% CMC) and a […] group of 3 rats received no force feeding.
# In order to evaluate any toxicity in the test compound, all the animals were regularly weighed over the 14 days. Their appearance and behavior were observed daily.
# About 16 hours after the final administration, the rats were anaesthetised with ketamine and blood samples were taken by intra-cardiac tapping to measure different hematological and biochemical parameters. The weight curves of the animals are shown in FIGS. 5 and 6 and Table 3 summarises the results of measurements carried out on the blood of the animals and the corresponding deviations.
# [3] = 10 and 100 μmoles/kg oral daily
smiles,measurement,setting,value
"CC1(C)CN[Se]c2ccccc21 [BXT-51072, 4,4-dimethyl-benzisoselenazine]","Glutathione peroxidase activity, t--BuOOH",[1],27.4 nmoles of hydroperoxide reduced/min
same,"Glutathione peroxidase activity, H2 O2",[2],42.0 nmoles of hydroperoxide reduced/min
same,protection of the cells from death induced by 18:2-OOH,endothelial cells,significantly protected the cells from death
same,inhibition at 10 µM,P-selectin,> 90%
same,BAS (basophiles),"rat; 10 μmoles/kg oral, n 4",0%
same,EOS (eosinophiles),"rat; 10 μmoles/kg oral, n 4",0%
same,GB (White cells),"rat; 10 μmoles/kg oral, n 4",8.45 G/l
same,GR (Red cells),"rat; 10 μmoles/kg oral, n 4",6.88 T/l
same,HB (Hemoglobin),"rat; 10 μmoles/kg oral, n 4",9.08 mM
same,HCT (Hematocrit),"rat; 10 μmoles/kg oral, n 4",0.41
same,LYM (Lymphocytes),"rat; 10 μmoles/kg oral, n 4",82%
same,MON (Monocytes),"rat; 10 μmoles/kg oral, n 4",0%
same,NEU (neutrophiles),"rat; 10 μmoles/kg oral, n 4",18%
same,PAL (Alkaline phosphalase),"rat; 10 μmoles/kg oral, n 4",320 Ul/l
same,PLT (Platelets),"rat; 10 μmoles/kg oral, n 4",541 G/l
same,Urea,"rat; 10 μmoles/kg oral, n 4",4.03 mM
same,VGM (Average cell volume of GR),"rat; 10 μmoles/kg oral, n 4",59.8 II
same,K^+,"rat; 10 μmoles/kg oral, n = 1",5.0 mM
same,Na^+,"rat; 10 μmoles/kg oral, n = 1",143 mM
same,Cl^-,"rat; 10 μmoles/kg oral, n = 2",93 mM
same,Prot (Proteins),"rat; 10 μmoles/kg oral, n = 2",53.9 g/L
same,ALAT (Alanine aminotransferase),"rat; 10 μmoles/kg oral, n = 3",50 Ul/l
same,ASAT (Aspartale aminotransferase),"rat; 10 μmoles/kg oral, n = 3",136 Ul/l
same,weight gain,rat; 100 μmoles/kg oral daily,slight slowing in weight gain
same,BAS (basophiles),"rat; 100 μmoles/kg oral, n 7",0%
same,EOS (eosinophiles),"rat; 100 μmoles/kg oral, n 7",1%
same,GB (White cells),"rat; 100 μmoles/kg oral, n 7",7.57 G/l
same,GR (Red cells),"rat; 100 μmoles/kg oral, n 7",7.44 T/l
same,HB (Hemoglobin),"rat; 100 μmoles/kg oral, n 7",9.46 mM
same,HCT (Hematocrit),"rat; 100 μmoles/kg oral, n 7",0.43
same,LYM (Lymphocytes),"rat; 100 μmoles/kg oral, n 7",81%
same,MON (Monocytes),"rat; 100 μmoles/kg oral, n 7",0%
same,NEU (neutrophiles),"rat; 100 μmoles/kg oral, n 7",18%
same,PLT (Platelets),"rat; 100 μmoles/kg oral, n 7",517 G/l
same,VGM (Average cell volume of GR),"rat; 100 μmoles/kg oral, n 7",57.6 II
same,K^+,"rat; 100 μmoles/kg oral, n = 2",5.0 mM
same,Na^+,"rat; 100 μmoles/kg oral, n = 2",143 mM
same,ALAT (Alanine aminotransferase),"rat; 100 μmoles/kg oral, n = 4",58 Ul/l
same,ASAT (Aspartale aminotransferase),"rat; 100 μmoles/kg oral, n = 4",133 Ul/l
same,Cl^-,"rat; 100 μmoles/kg oral, n = 4",93 mM
same,Prot (Proteins),"rat; 100 μmoles/kg oral, n = 4",55.0 g/L
same,PAL (Alkaline phosphalase),"rat; 100 μmoles/kg oral, n = 5",310 Ul/l
same,Urea,"rat; 100 μmoles/kg oral, n = 5",4.05 mM
same,mortality,rat; [3],none of the animals had died
same,other signs of toxicity,rat; [3],no other sign of toxicity
same,tolerance,rat; repeated oral administration,tolerated well
